Results on 17 compounds are retold here after ChEMBL document CHEMBL1201862, “PubChem BioAssay data set” (2004).

In general, EC50 refers to the concentration at which the effect is half-maximal. By IC50 is commonly meant the concentration at which inhibition is half-maximal. Broadly, the AC50 is the concentration at which the activity in the assay is half-maximal.

Calls of active or inactive are those of the source.

System in the first test: not listed separately
The test can be described thus: Luminescence Cell-Based Dose Response HTS to Identify Activators of Luciferase Translation or Activity in H4 […] Cells. [Related pubchem assays: 1829 (Project Summary), 1814 (Primary HTS)].
Settings: not given
It counts as functional.
As to `COc1ccc(NC(=O)C2C(=O)N(CCO)C3(C)CC2c2ccccc2O3)cc1` (configuration not stated), the EC50 was 14.8 µM (active).
On the same count and under the same terms, with `Cc1sc2c(c1C)CN(Cc1ccncc1)CN2C(=O)c1ccco1` the figure was 11 µM (active).
Still for that read-out and setting: as for `Cc1ccc(Oc2cnn(-c3ccccc3)c(=O)c2Br)cc1`, the figure is 27 µM (active); as for `O=C1NC(=S)N/C1=C/c1cccc2ccccc12`, 8.63 µM (active).
`CN1C(=O)/C(=C2/C(=O)Nc3ccccc32)S/C1=N\c1ccc(Cl)cc1`: the EC50 was 46.1 µM (active).
As to `O=C1/C(=C\Nc2ccc(OC(F)(F)F)cc2)CCN1c1ncccn1`, the EC50 is 23.7 µM (active).

The target in the next test is Induced myeloid leukemia cell differentiation protein Mcl-1 (Homo sapiens, UniProt Q07820).
Induced myeloid leukemia cell differentiation protein Mcl-1, sequence (Q07820 whole entry): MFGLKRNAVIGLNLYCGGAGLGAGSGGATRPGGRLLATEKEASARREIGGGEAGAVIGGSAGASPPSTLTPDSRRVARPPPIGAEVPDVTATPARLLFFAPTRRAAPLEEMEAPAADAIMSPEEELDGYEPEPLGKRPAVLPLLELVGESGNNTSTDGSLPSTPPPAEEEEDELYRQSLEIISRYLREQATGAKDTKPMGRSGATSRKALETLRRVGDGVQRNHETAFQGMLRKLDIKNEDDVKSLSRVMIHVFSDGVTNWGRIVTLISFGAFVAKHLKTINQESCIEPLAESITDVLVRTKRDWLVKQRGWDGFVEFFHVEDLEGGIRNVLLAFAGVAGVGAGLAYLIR
Test: not given
It counts as functional.
Settings: not given
As for `CC1CCN(C(c2ccc(N(C)C)cc2)c2nnnn2C(C)(C)C)CC1` (configuration not stated), the IC50 was > 54 µM (active).
For the compound `CCOc1ccccc1NC(=O)/C=C/C(N)=O`, the IC50 is 1.1 µM (not active).
For the compound `O=C(N/N=C/c1ccc(-c2ccccc2C(=O)O)o1)c1cccs1`, the half-maximal inhibitory concentration (IC50) was 5.27 µM (active).
For `Cc1cccc(OCCCC(=O)Nc2ccc(N(C)C)cc2)c1`, the IC50 is < 0.4 µM (active).

System in another test: not listed separately
The test can be described thus: Luminescence Cell-Based Dose Response HTS to Identify Inhibitors of 5'UTR Stem-Loop Driven Prion Protein mRNA Translation in H4 Neuroglioblastoma Cells. [Related pubchem assays: 1827 (Project Summary), 1813 (Primary HTS)]. The class given is functional.
Settings: not given
`COc1cccc2sc(NNC(=O)c3nc4ccccc4s3)nc12`: the EC50 is 16.5 µM (active).
Take `Nc1nc(Nc2ccccc2)nc(NCc2ccccc2)c1[N+](=O)[O-]`: the EC50 is > 120 µM (not active).
Regarding `Cc1cc(C)n(CC(C)NC(=O)c2cc(COc3c(F)cccc3F)on2)n1` (configuration not stated), the half-maximal effective concentration (EC50) is reported as > 120 µM (not active).
On the same count and under the same terms, as for `COc1ccc(Nc2nc(N)c([N+](=O)[O-])c(NC3CCCCC3)n2)cc1`, the figure is 10.7 µM (active).
Still for that read-out and setting: as for `CCCCCCNC(=O)CCNS(=O)(=O)c1ccc(C)cc1`, the figure is > 120 µM (not active).
As to `CCN(CC)CCN(C(=O)c1cc2c(ccc3ccccc32)oc1=O)c1nc2cc3c(cc2s1)OCCO3`, the EC50 was > 120 µM (inconclusive).

System in a further test: not listed separately
Briefly: P. falciparum Dd2 growth inhibitors, dose response, SYBR Green, dry powder samples (AID 1159566).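 Further: potency for growth inhibition with lower SYBR green DNA signal.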 It counts as functional, cell-based.
Settings: not given
As to `CC(C)(C)[S@@+]([O-])N1Cc2cc(C(=O)N[C@@H]3CCN(Cc4ccccc4)C3)nc(-c3cccc(-c4cccnc4)c3)c2[C@H]1CCO`, the concentration at half-maximal activity (AC50) is 2.01 µM (active).

For the next test, the system named is H4. Briefly: Luminescence Cell-Based Dose Response HTS to Identify Activators of 5'UTR Stem-Loop Driven Prion Protein mRNA Translation in H4 Neuroglioblastoma Cells. [Related pubchem assays: 1829 (Project Summary), 1814 (Primary HTS)]. As to conditions: Homo sapiens. The class given is functional.
For `COc1ccc(NC(=O)C2C(=O)N(CCO)C3(C)CC2c2ccccc2O3)cc1` (configuration not stated), the EC50 is 10.2 µM (active).
On to `Cc1sc2c(c1C)CN(Cc1ccncc1)CN2C(=O)c1ccco1`, for which the 50% effective concentration (EC50) is listed as > 60 µM (not active).
As for `Cc1ccc(Oc2cnn(-c3ccccc3)c(=O)c2Br)cc1`, the EC50 is 30.7 µM (active).
On to `O=C1NC(=S)N/C1=C/c1cccc2ccccc12`, for which the concentration for a half-maximal effect (EC50) is listed as > 120 µM (not active).
On to `CN1C(=O)/C(=C2/C(=O)Nc3ccccc32)S/C1=N\c1ccc(Cl)cc1`, for which the EC50 was 32.3 µM (active).
Regarding `O=C1/C(=C\Nc2ccc(OC(F)(F)F)cc2)CCN1c1ncccn1`, the EC50 is 14.6 µM (active).

System in a further test: not listed separately
Briefly: P. falciparum Dd2 growth inhibitors, dose response, SYBR Green, cherry-picked samples (AID 1159567). It counts as functional, cell-based.
Settings: not given
As to `CC(C)(C)[S@@+]([O-])N1Cc2cc(C(=O)N[C@@H]3CCN(Cc4ccccc4)C3)nc(-c3cccc(-c4cccnc4)c3)c2[C@H]1CCO`, the AC50 is 1.94 µM (active).

System in the next test: not listed separately
The test can be described thus: Luminescence Cell-Based Dose Confirmation HTS to Identify Activators of 5'UTR Stem-Loop Driven Alpha-Synuclein mRNA Translation in H4 Neuroglioblastoma Cells. [Related pubchem assays: 1829 (Project Summary), 1814 (Primary HTS)].
Settings: not given
It counts as functional.
In the case of `COc1ccc(NC(=O)C2C(=O)N(CCO)C3(C)CC2c2ccccc2O3)cc1` (configuration not stated), the EC50 was 7.35 µM (active).
Consider `Cc1sc2c(c1C)CN(Cc1ccncc1)CN2C(=O)c1ccco1`, for which the EC50 is > 120 µM (not active).
Turning to `Cc1ccc(Oc2cnn(-c3ccccc3)c(=O)c2Br)cc1`, the EC50 is listed as > 120 µM (not active).
Consider `O=C1NC(=S)N/C1=C/c1cccc2ccccc12`, for which the EC50 was 17.7 µM (active).
Turning to `CN1C(=O)/C(=C2/C(=O)Nc3ccccc32)S/C1=N\c1ccc(Cl)cc1`, the EC50 was 12.7 µM (active).
Turning to `O=C1/C(=C\Nc2ccc(OC(F)(F)F)cc2)CCN1c1ncccn1`, the half-maximal effective concentration (EC50) is 20.4 µM (active).

System in another test: not listed separately
The test can be described thus: microbe, parasite or virus in culture. It counts as functional. As to conditions: Mycobacterium tuberculosis.
For the compound `COc1ccc(Nc2nc(N)c([N+](=O)[O-])c(NC3CCCCC3)n2)cc1`, the CC50 is 32 µM (active).

System in the next test: not listed separately
The test can be described thus: inhibitors of SNCA 5'UTR-driven reporter translation, confirmation, H4 neuroglioma cells, luminescence (AID 1988). It counts as functional, cell-based.
Settings: not given
For `COc1cccc2sc(NNC(=O)c3nc4ccccc4s3)nc12`, the EC50 was > 120 µM (not active).
Take `Nc1nc(Nc2ccccc2)nc(NCc2ccccc2)c1[N+](=O)[O-]`: the EC50 is 44.7 µM (active).
`Cc1cc(C)n(CC(C)NC(=O)c2cc(COc3c(F)cccc3F)on2)n1` (configuration not stated): the EC50 was > 120 µM (not active).
Turning to `COc1ccc(Nc2nc(N)c([N+](=O)[O-])c(NC3CCCCC3)n2)cc1`, the EC50 was 17.2 µM (active).
`CCCCCCNC(=O)CCNS(=O)(=O)c1ccc(C)cc1`: the half-maximal effective concentration (EC50) is > 120 µM (not active).
Still for that read-out and setting: with `CCN(CC)CCN(C(=O)c1cc2c(ccc3ccccc32)oc1=O)c1nc2cc3c(cc2s1)OCCO3` the figure was 9.65 µM (active).

System in the next test: not listed separately
Briefly: Luminescence Cell-Based Dose Retest to Confirm Inhibitors of Cancer Stem Cells. [Related pubchem assays (depositor defined):AID2717, AID2721]. It counts as functional. Conditions: Homo sapiens.
`COc1ccc(Nc2nc(N)c([N+](=O)[O-])c(NC3CCCCC3)n2)cc1`: the AC50 was 3.53 µM (active).

The target of the next test is T1, Carboxy-terminal domain RNA polymerase II polypeptide A small phosphatase 1 (Homo sapiens, UniProt Q9GZU7).
T1 sequence (Q9GZU7 whole entry): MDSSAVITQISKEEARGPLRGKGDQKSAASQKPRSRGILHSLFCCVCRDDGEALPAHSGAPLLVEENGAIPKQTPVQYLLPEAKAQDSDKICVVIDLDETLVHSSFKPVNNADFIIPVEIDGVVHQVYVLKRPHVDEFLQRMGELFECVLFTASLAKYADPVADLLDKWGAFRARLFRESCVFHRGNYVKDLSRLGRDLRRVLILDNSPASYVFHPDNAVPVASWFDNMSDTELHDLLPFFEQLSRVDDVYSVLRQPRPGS
The test can be described thus: inhibitors of CTDSP1, concentration-response testing, biochemical assay, absorbance-based, actives from ultra-high-throughput screening (AID 540297).
Settings: not given
The class given is functional.
Take `O=C(N/N=C/c1ccc(-c2ccccc2C(=O)O)o1)c1cccs1`: the IC50 is 4.6 µM (active).

System in another test: not listed separately
The test can be described thus: inhibitors of firefly luciferase expression or activity, dose response, H4 neuroglioma cells, luminescence (AID 1990). It counts as functional, cell-based.
Settings: not given
With `COc1cccc2sc(NNC(=O)c3nc4ccccc4s3)nc12`, the EC50 is given as > 120 µM (not active).
Regarding `Nc1nc(Nc2ccccc2)nc(NCc2ccccc2)c1[N+](=O)[O-]`, the EC50 was 17 µM (active).
Regarding `Cc1cc(C)n(CC(C)NC(=O)c2cc(COc3c(F)cccc3F)on2)n1` (configuration not stated), the EC50 is on record as > 120 µM (not active).
Consider `COc1ccc(Nc2nc(N)c([N+](=O)[O-])c(NC3CCCCC3)n2)cc1`, for which the concentration giving a half-maximal response (EC50) was 14.8 µM (active).
As for `CCCCCCNC(=O)CCNS(=O)(=O)c1ccc(C)cc1`, the EC50 is > 120 µM (not active).
`CCN(CC)CCN(C(=O)c1cc2c(ccc3ccccc32)oc1=O)c1nc2cc3c(cc2s1)OCCO3`: the EC50 is recorded as > 120 µM (not active).

System in the next test: not listed separately
Briefly: P. falciparum 3D7-ScDHODH growth inhibitors, dose response, SYBR Green, dry powder samples (AID 1159570).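 Further: parasite growth measured after 72 hours of compound exposure.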 The class given is functional, cell-based.
Settings: not given
For `CC(C)(C)[S@@+]([O-])N1Cc2cc(C(=O)N[C@@H]3CCN(Cc4ccccc4)C3)nc(-c3cccc(-c4cccnc4)c3)c2[C@H]1CCO`, the AC50 was 3.42 µM (active).

System in another test: not listed separately
Briefly: P. falciparum ATP4 D1247Y mutant growth inhibitors, dose response, NITD609-resistant line, SYBR Green, dry powder (AID 1159571).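 Further: parasites synchronized at ring stage by sorbitol before testing.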 The class given is functional, cell-based.
Settings: not given
As to `CC(C)(C)[S@@+]([O-])N1Cc2cc(C(=O)N[C@@H]3CCN(Cc4ccccc4)C3)nc(-c3cccc(-c4cccnc4)c3)c2[C@H]1CCO`, the AC50 is 2.58 µM (active).
